Among the test systems are CAKI-1 renal; SW-620 colon; HOP-62 NSCLC; SR leukemia; BT-549 breast; IGROV1 ovarian; MALME-3M melanoma; LOX IMVI melanoma; HCT-116 colon; MCF7 breast; M14 melanoma; NCI/ADR-RES ovarian; MDA-MB-435; RXF 393 renal; NCI-H522 lung.
What all share (experiment): inhibition of tumour cell growth, NCI panel, 48 h

Here are results for two compounds from PubChem BioAssay (NCI).

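48-hour exposure; five concentrations; linearly interpolated endpoints. TGI denotes the concentration required for complete inhibition of growth.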

As for `CNC1=C(C)C(=O)C(=O)C([C@H](C)CCC=C(C)C)=C1O`, the TGI is 56.7 µM in the test with CAKI-1 renal; over 100 µM in the test on SW-620 colon; over 31.6 µM with HOP-62 NSCLC; 71 µM in the test with SR leukemia; over 100 µM in the test on BT-549 breast; over 76.1 µM in the test on IGROV1 ovarian. The TGI was over 68.6 µM with MALME-3M melanoma; over 100 µM in the test on LOX IMVI melanoma; over 100 µM in the test with HCT-116 colon; over 100 µM in the test on MCF7 breast; over 100 µM with M14 melanoma; over 38.4 µM with NCI/ADR-RES ovarian. The TGI in the test with MDA-MB-435 was over 100 µM; with RXF 393 renal, over 100 µM; with NCI-H522 lung it was 20.4 µM.
Turning to `COC(=O)C1(CCC(C)=O)CCCCCC1=O` (stereo not given), the TGI in the test with CAKI-1 renal, with SW-620 colon, with HOP-62 NSCLC, with SR leukemia, with BT-549 breast and in the test on IGROV1 ovarian was over 100 µM throughout. Besides, the TGI in the test with MALME-3M melanoma, in the test on LOX IMVI melanoma, in the test with HCT-116 colon, with MCF7 breast, in the test with M14 melanoma and in the test on NCI/ADR-RES ovarian was over 100 µM throughout. Also, the TGI with MDA-MB-435, with RXF 393 renal and with NCI-H522 lung was over 100 µM throughout.
